Data from PMC9323733, “Efficacy of Vafidemstat in Experimental Autoimmune Encephalomyelitis Highlights the KDM1A/RCOR1/HDAC Epigenetic Axis in Multiple Sclerosis” (Pharmaceutics, 2022).

Columns and labels:
[1] = test system: SJL/J mice infected with TMEV; assay: Theiler's murine encephalomyelitis virus (TMEV) model; format: in vivo, mouse
Procedure: Susceptible SJL/J mice (6 weeks old), previously anesthetized with isoflurane, were inoculated in the cerebral parenchyma with 2 × 10^6 plaque forming units (pfu) of the Daniel’s strain of TMEV, diluted in 30 μL of Dulbecco’s Modified Eagle Medium (DMEM) supplemented with 5% fetal bovine serum (FBS). The injection takes place in the right hemisphere of the cerebral cortex using a Hamilton syringe coupled to a pipette tip in such a way that it allows for an exposure of the needle of about 2–3 mm; thus, the virus is always injected at the same depth. Sham animals are subjected to the same protocol, but they only received 30 µL of DMEM supplemented with 5% fetal bovine serum. […] Control mice were treated with vehicle [2% v/v Tween-80 + 98% HPβCD (13% w/v)] following the same administration regime (Figure 4a). The animals were weighed every week from the onset of infection and clinical signs were evaluated using the criterion described by Moses Rodriguez (Mayo Clinic), source of the Daniel’s strain of TMEV to assess the severity of the disease by the general appearance: Score 1 = Shaggy and scruffy hair; 2 = scruffy appearance and hunched back; 3 = no spontaneous movement, reduced induced activity; and Gait: Score 1 = mild ataxia with inconsistent waddling gait; 2 = moderate ataxia with consistent waddling gait; 3 = severe ataxia with reduced righting response; 4 = spastic paresis of hind legs. The score of the animals and motor behavior were analyzed by trained observers blind to treatment and experimental groups.
The screening for locomotor activity was performed by analyzing spontaneous motor activity using an Activity Cage (Activity Monitor System Omnitech Electronics, Inc., Columbus, OH, USA) and by evaluating the mice performance in the Rotarod test. The activity cage consists of a four-compartment metacrylate cage, surrounded by sensors in such a way that it registers the movements of the mouse in both vertical and horizontal position and ambulation. The test consists of introducing the mice into two compartments of the cage placed diagonally so as not to interfere with the sensors of the other mouse. During two five-minute cycles (0–5 min, 5–10 min), horizontal activity (HACTV) or vertical activity (VACTV) are recorded. The first cycle evaluates the spontaneous activity in a new environment and the second measures the activity of the animal once habituated to the new environment. This task was performed on days 60, 70, 78, and 86 post-infection. The rotarod (Ugo Basile, Milan, Italia) consists of a rotating cylinder (roll) suspended above a cage floor turning at a constant speed or acceleration. The system is completed with a stopwatch for each compartment that stops when the mouse falls from the roll to a lever on the bottom of the device. One week prior to the test, mice were trained and familiarized with the test for one minute at a constant speed. The length of time that mice stay on the rotating roll is a measure of their balance and motor coordination. The test consists of measuring the time that mice remain on the roll with constant acceleration for a maximum time of five minutes. Mice that developed strategies to stay on the roll (p.e. seeking support on the wall) were excluded from evaluation. The rotarod test was performed on day 72, 78, and 86 post-infection.
Cervical and lumbar spinal cord segments of spinal cords obtained from EAE mice sacrificed on day 17 or 26 post-immunization were divided and processed for inclusion and sectioning in paraffin and for inclusion in an optimal cutting temperature (OCT) compound and future cryosectioning of the samples. Spinal cord segments were immediately fixed with buffered 10% formalin for 48 h, dehydrated and included in paraffin using standard techniques. […]

[2] = test system: spleen cells isolated from mice suffering chronic EAE; assay: Encephalitogenic T-cell response in vitro, spleen cells of EAE mice re-stimulated with MOG35–55; format: cell-based, mouse; details: 0.5 µM ORY-2001, MOG35–55 15 µM
Procedure: Spleen and draining lymph node (DLN) cells (10^6/mL) collected from EAE mice were stimulated in complete medium (RPMI 1640 containing 10% FBS, 50 µM 2-ME, 2 mM L-glutamine, 100 U/mL penicillin, and 100 µg/mL streptomycin) with 15 µM MOG35–55. After 48 h, cytokine (IL-4, TNF-alpha, IFN-gamma) and chemokine (IP-10 and MCP1) contents in culture supernatants were determined by sandwich ELISAs using capture/biotinylated detection Abs according to the manufacturer’s recommendations. The antibodies used are indicated in Supplementary Materials Table S4. Cell proliferation was evaluated after 72 h by adding 2.5 µCi/mL tritiated-thymidine during the last 8 h of culture and determining cpm incorporation in a Microbeta counter. We used T cell activation with an anti-CD3 […] antibody (1 µg/mL) or ConA (2.5 µg/mL) as controls of unspecific polyclonal stimulation.
Data are the mean ± SEM with dots representing individual values of biologically independent animals.

[3] = test system: patients and healthy volunteers; details: cited from earlier work

Nc1nnc(CN[C@@H]2C[C@H]2c2ccc(OCc3ccccc3)cc2)o1 [ORY-2001]
CD4 and CD8 lymphocytes in spinal cord parenchyma ([1]; p.o. 0.3 and 1.0 mg/kg): decreased the accumulation of CD4 and CD8 lymphocytes into the parenchyma
body weight ([1]; p.o. 0.3 and 1.0 mg/kg): did not produce any body weight changes
horizontal activity (activity cage) ([1]; p.o. 0.3 and 1.0 mg/kg): significantly improved the motor activity in the horizontal activity
infiltration of immune cells into the spinal cord ([1]; p.o. 0.3 and 1.0 mg/kg): diminished after ORY-2001 treatment
other motor deficits (vertical activity, rotarod) ([1]; p.o. 0.3 and 1.0 mg/kg): partially reduced other motor deficits
clinical score ([1]; p.o. 0.3 and 1.0 mg/kg, days 72-76 and 79-83 post-infection): reduced the clinical score
astroglial activation ([1]; spinal cord): partially limited astroglial activation
axon integrity ([1]; spinal cord): increased axon integrity
microglial activation (AIF-1 positive cells) ([1]; spinal cord): significantly reduced microglial activation
IL-10 and IL-4 levels [2]: increasing the levels of the anti-inflammatory mediators IL-10 and IL-4
MOG35–55-induced proliferation and cytokine production [2]: deactivated the MOG35–55 -induced proliferation and cytokine production in vitro
YKL40 levels in patients ([3]; AD Phase II trial ETHERAL, relative to placebo): significantly reduced relative to placebo
aggression ([3]; BPD, ADHD, ASD and moderate-severe AD, Phase IIa REIMAGINE and REIMAGINE-AD): significantly reduced aggression
safety in humans ([3]; more than 300 subjects in multiple studies): has been shown to be safe
safety and tolerability, long-term treatment ([3]; relapse-remitting and secondary progressive MS, SATEEN): safe and well tolerated
